Assay results: article PMC4821887, “Identification of chemicals that mimic transcriptional changes associated with autism, brain aging and neurodegeneration” (Nature Communications, 2016)

Tested on: mouse cortical cultures
Assay: RNA-seq differential expression (DESeq) against matched vehicle
Format: cell-based
Design: key to MeanFenamidone Bcl11b / MeanFenamidone Slc12a4 / MeanFenamidone Abca1 / MeanFenamidone Hmox1 / MeanFenamidone Il1rap / MeanFenamidone Cyba / MeanFenamidone Narf / MeanFenamidone Bnip3 / MeanFenamidone Amotl2 / MeanFenamidone Gad2 / MeanFenamidone Vsnl1 / MeanFenamidone Fam178a: DESeq mean of counts over RefSeq exons
Procedure: Figure 4 Cluster 2 chemicals alter expression of a common set of genes. […] RNA-seq was performed in quadruplicate after treating cortical cultures with fenamidone (10 μM) or pyraclostrobin (0.1 μM) for 24 h (n=3 biological replicates) and compared with matched vehicle controls using DESeq to detect differentially expressed genes, listed in Supplementary Data 4.
Cultures were treated with the non-cytotoxic dose of each chemical, by exchanging half of the original medium with chemicals at 2 × concentration in prewarmed feeding medium, on DIV 7 for 24 h in 12-well plates at a density of 5 × 10^5 cells per well. RNA was isolated using RNeasy plus mini kit (Cat. #74134, Qiagen). […]. Samples were further assessed for quality using either an Agilent Bioanalyzer 2100 or TapeStation 2200 to obtain a RIN. RIN values exceeding 7 were used for sequencing. RNA samples were used to generate and barcode complementary DNA libraries using the TruSeq RNA Library Preparation Kit at the UNC High Throughput Sequencing Facility. Pools of 24 multiplexed samples were sequenced per lane on an Illumina HiSeq 2500 using 50-bp paired-end reads.
RNA-seq reads were filtered using TagDust and aligned to the reference mouse genome (mm9) with TopHat using default parameters. Reads aligning to ribosomal RNA genes were removed. Transcript abundance was estimated by computing Reads per kilobase per million mapped reads (RPKM) using RefSeq gene models aggregated by gene symbol. For differential expression analyses, raw counts over RefSeq exons were used, and then were compared across samples using DESeq[62].

CSC1=N[C@@](C)(c2ccccc2)C(=O)N1Nc1ccccc1 [fenamidone]
log2FoldChange (gene Prss23): 2.578
MeanFenamidone Ptpn14 (gene Ptpn14, DESeq mean, 4 reps): 536.253
log2FoldChange Ptpn14 (gene Ptpn14, vs vehicle, 4 reps): 2.06
MeanFenamidone (gene Ptpro): 128.9
log2FoldChange (gene Ptpro): -1.349
MeanFenamidone (gene Rab6b): 1528.43
log2FoldChange (gene Rab6b): -1.231
MeanFenamidone Rian (gene Rian, DESeq mean, 4 reps): 479.419
log2FoldChange Rian (gene Rian, vs vehicle, 4 reps): -1.772
MeanFenamidone Rimkla (gene Rimkla, DESeq mean, 4 reps): 54.5497
log2FoldChange Rimkla (gene Rimkla, vs vehicle, 4 reps): -1.586
MeanFenamidone Rph3a (gene Rph3a, DESeq mean, 4 reps): 62.2069
log2FoldChange Rph3a (gene Rph3a, vs vehicle, 4 reps): -2.0001
MeanFenamidone (gene Rsu1): 240.928
log2FoldChange (gene Rsu1): 1.174
MeanFenamidone Samd4 (gene Samd4, DESeq mean, 4 reps): 336.652
log2FoldChange Samd4 (gene Samd4, vs vehicle, 4 reps): 1.621
MeanFenamidone Scn2a1 (gene Scn2a1, DESeq mean, 4 reps): 402.156
log2FoldChange Scn2a1 (gene Scn2a1, vs vehicle, 4 reps): -1.491
MeanFenamidone Sdc1 (gene Sdc1, DESeq mean, 4 reps): 327.963
log2FoldChange Sdc1 (gene Sdc1, vs vehicle, 4 reps): 1.6746
MeanFenamidone (gene Sdc3): 1856.44
log2FoldChange (gene Sdc3): -1.095
MeanFenamidone Serpine2 (gene Serpine2, DESeq mean, 4 reps): 777.193
log2FoldChange Serpine2 (gene Serpine2, vs vehicle, 4 reps): 1.421
MeanFenamidone (DESeq mean normalized counts) (gene Serpinf1, Fenamidone, 4 reps, vs matched vehicle): 51.7434
MeanFenamidone Serpini1 (gene Serpini1, DESeq mean, 4 reps): 255.176
log2FoldChange Serpini1 (gene Serpini1, vs vehicle, 4 reps): -1.567
MeanFenamidone (gene Sgpl1): 504.223
log2FoldChange (gene Sgpl1): 1.381
MeanFenamidone Shank1 (gene Shank1, DESeq mean, 4 reps): 288.972
log2FoldChange Shank1 (gene Shank1, vs vehicle, 4 reps): -1.584
MeanFenamidone (gene Shmt2): 164.927
log2FoldChange (gene Shmt2): 1.37
MeanFenamidone Slc3a2 (gene Slc3a2, DESeq mean, 4 reps): 1206
log2FoldChange Slc3a2 (gene Slc3a2, vs vehicle, 4 reps): 1.496
MeanFenamidone (gene Slc4a2): 227.842
log2FoldChange (gene Slc4a2): 1.898
MeanFenamidone Slc5a3 (gene Slc5a3, DESeq mean, 4 reps): 905.314
log2FoldChange Slc5a3 (gene Slc5a3, vs vehicle, 4 reps): 1.342
MeanFenamidone Slc8a3 (gene Slc8a3, DESeq mean, 4 reps): 22.3077
log2FoldChange Slc8a3 (gene Slc8a3, vs vehicle, 4 reps): -2.167
MeanFenamidone Slc12a4 (gene Slc12a4, DESeq mean, 4 reps): 353.466
log2FoldChange Slc12a4 (gene Slc12a4, vs vehicle, 4 reps): 2.575
MeanFenamidone Slc12a5 (gene Slc12a5, DESeq mean, 4 reps): 198.315
log2FoldChange Slc12a5 (gene Slc12a5, vs vehicle, 4 reps): -1.614
MeanFenamidone (gene Slc12a7): 123.511
log2FoldChange (gene Slc12a7): 2.012
MeanFenamidone Slc32a1 (gene Slc32a1, DESeq mean, 4 reps): 76.5704
log2FoldChange Slc32a1 (gene Slc32a1, vs vehicle, 4 reps): -1.6789
MeanFenamidone (gene Slit2): 473.475
log2FoldChange (gene Slit2): 1.336
MeanFenamidone (gene Slitrk3): 59.0221
log2FoldChange (gene Slitrk3): -1.399
MeanFenamidone Smpd3 (gene Smpd3, DESeq mean, 4 reps): 450.951
log2FoldChange Smpd3 (gene Smpd3, vs vehicle, 4 reps): -1.523
MeanFenamidone (gene Snap91): 577.837
log2FoldChange (gene Snap91): -1.2276
MeanFenamidone Snx33 (gene Snx33, DESeq mean, 4 reps): 193.085
log2FoldChange Snx33 (gene Snx33, vs vehicle, 4 reps): 2.21
MeanFenamidone (gene Sorl1): 374.526
log2FoldChange (gene Sorl1): 1.703
MeanFenamidone Spock3 (gene Spock3, DESeq mean, 4 reps): 49.3806
log2FoldChange Spock3 (gene Spock3, vs vehicle, 4 reps): -2.6448
MeanFenamidone Sprn (gene Sprn, DESeq mean, 4 reps): 108.373
log2FoldChange Sprn (gene Sprn, vs vehicle, 4 reps): -1.675
MeanFenamidone Srxn1 (gene Srxn1, DESeq mean, 4 reps): 1016.41
log2FoldChange Srxn1 (gene Srxn1, vs vehicle, 4 reps): 2.241
MeanFenamidone (gene Ssc5d): 60.5262
log2FoldChange (gene Ssc5d): 1.812
MeanFenamidone Ssfa2 (gene Ssfa2, DESeq mean, 4 reps): 339.098
log2FoldChange Ssfa2 (gene Ssfa2, vs vehicle, 4 reps): 1.684
MeanFenamidone (gene St8sia1): 138.691
log2FoldChange (gene St8sia1): -1.185
MeanFenamidone St8sia3 (gene St8sia3, DESeq mean, 4 reps): 218.799
log2FoldChange St8sia3 (gene St8sia3, vs vehicle, 4 reps): -1.589
MeanFenamidone (gene St8sia4): 83.2874
log2FoldChange (gene St8sia4): -1.239
